Drawing on US9126999B2, “Tetrahydropyrazolopyrimidine compounds” (EISAI R&D MANAGEMENT CO., LTD., priority 2012, dated 2015), this text covers IC50 for 5 compounds.

SMILES strings stand for the structures. Where two headings read alike, the source gives them in different places.

One test concerns the target T1, Human TLR8 (Homo sapiens, UniProt Q9NR97).
T1 construct: host or cells: HEK-293 stably expressing human TLR8, then transfected with pNiFty2(NF-kappaB)-luciferase
T1 sequence (Q9NR97 27-1041): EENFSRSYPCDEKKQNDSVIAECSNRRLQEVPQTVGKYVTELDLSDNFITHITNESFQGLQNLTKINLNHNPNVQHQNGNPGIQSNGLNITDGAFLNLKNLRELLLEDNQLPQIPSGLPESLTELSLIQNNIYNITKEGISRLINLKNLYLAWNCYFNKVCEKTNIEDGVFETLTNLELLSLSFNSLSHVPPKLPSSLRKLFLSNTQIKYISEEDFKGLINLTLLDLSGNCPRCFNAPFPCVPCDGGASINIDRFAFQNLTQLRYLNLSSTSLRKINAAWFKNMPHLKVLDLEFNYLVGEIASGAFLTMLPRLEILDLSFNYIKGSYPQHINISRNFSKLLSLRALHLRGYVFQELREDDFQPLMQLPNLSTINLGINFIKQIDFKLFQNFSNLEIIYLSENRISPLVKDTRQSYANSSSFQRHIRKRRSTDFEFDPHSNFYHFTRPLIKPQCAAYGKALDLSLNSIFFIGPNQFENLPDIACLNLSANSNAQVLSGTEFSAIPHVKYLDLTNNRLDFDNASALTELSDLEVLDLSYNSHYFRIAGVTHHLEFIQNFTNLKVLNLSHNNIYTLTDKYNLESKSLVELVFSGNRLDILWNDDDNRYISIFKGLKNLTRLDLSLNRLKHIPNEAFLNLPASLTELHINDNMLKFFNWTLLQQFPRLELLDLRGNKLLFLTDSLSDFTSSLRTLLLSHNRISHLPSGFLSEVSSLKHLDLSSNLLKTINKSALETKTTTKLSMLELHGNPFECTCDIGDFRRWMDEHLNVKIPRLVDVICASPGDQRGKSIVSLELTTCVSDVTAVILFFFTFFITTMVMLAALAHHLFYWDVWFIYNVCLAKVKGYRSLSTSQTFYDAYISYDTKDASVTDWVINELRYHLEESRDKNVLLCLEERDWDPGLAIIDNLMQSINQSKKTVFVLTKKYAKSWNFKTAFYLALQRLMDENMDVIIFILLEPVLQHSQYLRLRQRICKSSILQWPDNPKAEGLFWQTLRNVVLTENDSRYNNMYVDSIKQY
Description: HEK-293 NF-kappaB luciferase reporter assay, CL097 stimulus. Type of test: cell-based. Particulars: human TLR8 in the HEK-293 assay format; read-out: HEK/TLR8 IC50. An excerpt:
In vitro pharmacology: HEK-293 cells (ATCC) were engineered to stably express a NF-kappaB transcription factor inducible E-selectin (ELAM-1) luciferase reporter derived from the plasmid pGL3 (Promega) containing base pairs −2241 bp to −254 bp from the promoter of the human E-selectin gene (Accession No. NM_000450). These cells were then subsequently engineered to stably and individually express human TLR4, TLR7 or TLR9 full-length ORF cDNAs. Human TLR4 cDNA (Accession No. NM_138554) was cloned into pcDNA 3.0 expression vector (Invitrogen). TLR4 transfected cells were also engineered to express human MD-2 co-receptor [MD-2 cDNA (Accession No. NM_015364) was cloned into the pEF-BOS vector] and were supplemented with 10 nM soluble CD14 (R&D Systems) in the media to optimize LPS responsiveness. Human TLR9 cDNA (Accession No. NM_017442) was cloned into the pBluescript II KS vector (Agilent). Human TLR7 cDNA (Accession No. NM_016562) was obtained from OriGene. HEK-293 cells stably expressing human TLR8 (Accession No. NM_138636) or mouse TLR7 (Accession No. NM_133211) were purchased from InvivoGen and were then stably transfected with pNiFty2(NF-kappaB)-luciferase reporter plasmid (InvivoGen). Each cell type was plated in Dulbecco's modified Eagle's medium (DMEM) containing 10% fetal bovine serum (FBS) at a density of 2.22×10^5 cells/ml into a 384-well plate and incubated for 2 days at 37° C., 5% CO2. Varying concentrations of antagonist compounds were then added. Cells were then incubated for another 30 minutes before adding the appropriate TLR agonist as follows (final concentrations indicated): lipopolysaccharide (LPS; Sigma) at 10 ng/ml for TLR4, CL097 (InvivoGen) at 3 ug/ml for human TLR7 and TLR8 and mouse TLR7, and CpG-2006-2A [sequence: […] (SEQ ID NO: 1) with phosphorothioate backbone, synthesized by Sigma-Aldrich] at 0.6 uM for TLR9.

The subject of a further test is T2, Human TLR7/8.
T2 construct: IC50; other: Hu PBMC; ligand RNA-Ig; analyte IL-6; analyte TNFα; ligand R848; IC50 against the RNA-Ig TLR7/8 stimulus; cytokine responses to RNA-Ig complexes in vitro; potency against the RNA-Ig TLR7/8 stimulus versus HCQ
Description: Human PBMC cell-based assay, RNA-Ig (SL4-Ig) stimulus, cytokine ELISA. The method, then:
(§1) Briefly, 25 ml blood was diluted with 15 ml PBS (without Ca^2+, Mg^2+) in a 50 ml conical tube, and 12 ml Histopaque was underlaid using a spinal needle. Tubes were centrifuged for 45 minutes at 1200 rpm (350×g), and PBMC were collected from the buffy coat. Cells were then washed twice in PBS, and red blood cells were lysed by suspension in 5 ml ammonium chloride solution (1× Red Blood Cell Lysis Buffer, eBioscience) for 5 minutes at room temperature.
Antagonist compounds solubilized and serial diluted in 100% DMSO were added in triplicate to cells to yield a final concentration of 0.1% DMSO (v/v). Hydroxychloroquine (Acros Organics) solubilized and serial diluted in PBS was added in triplicate to cells. […] The resulting “RNA-Ig” stimulus was incubated at room temperature for 15-30 minutes before adding to cells. PBMC were incubated with the various TLR agonists for 20 hours at 37° C., 5% CO2. Cell culture supernatants were collected, and levels of various human cytokines were assessed as indicated by standard ELISA procedure according to the manufacturer's recommended protocol (BD Biosciences, Inc., San Diego, Calif.).

Another test concerns the target Human TLR4 (Homo sapiens, UniProt O00206). As to the kind of experiment: Human PBMC cell-based assay, LPS stimulus, IL-6 ELISA. The arrangement: endogenous in cells; host or cells: primary human PBMC from healthy donor blood. The note with it: Hu PBMC; ligand LPS; analyte IL-6. The method, then:
as §1, with “Human peripheral blood mononuclear cells (PBMC) were isolated from freshly-drawn heparinized (10 USP units/ml, Hospira, Lakeforest, Ill.) healthy donor whole blood by density gradient (Histopaque® 1077, Sigma, Inc., St. Louis, Mo.). Briefly,” for “Briefly,”, “temperature. […]” for “temperature.”
(§2) Antagonist compounds solubilized and serial diluted in 100% DMSO were added in triplicate to cells to yield a final concentration of 0.1% DMSO (v/v). […] Cell culture supernatants were collected, and levels of various human cytokines were assessed as indicated by standard ELISA procedure according to the manufacturer's recommended protocol (BD Biosciences, Inc., San Diego, Calif.).

The target of the next test is T3, Human TLR9 (Homo sapiens, UniProt Q9NR96).
T3 sequence (Q9NR96 26-1032): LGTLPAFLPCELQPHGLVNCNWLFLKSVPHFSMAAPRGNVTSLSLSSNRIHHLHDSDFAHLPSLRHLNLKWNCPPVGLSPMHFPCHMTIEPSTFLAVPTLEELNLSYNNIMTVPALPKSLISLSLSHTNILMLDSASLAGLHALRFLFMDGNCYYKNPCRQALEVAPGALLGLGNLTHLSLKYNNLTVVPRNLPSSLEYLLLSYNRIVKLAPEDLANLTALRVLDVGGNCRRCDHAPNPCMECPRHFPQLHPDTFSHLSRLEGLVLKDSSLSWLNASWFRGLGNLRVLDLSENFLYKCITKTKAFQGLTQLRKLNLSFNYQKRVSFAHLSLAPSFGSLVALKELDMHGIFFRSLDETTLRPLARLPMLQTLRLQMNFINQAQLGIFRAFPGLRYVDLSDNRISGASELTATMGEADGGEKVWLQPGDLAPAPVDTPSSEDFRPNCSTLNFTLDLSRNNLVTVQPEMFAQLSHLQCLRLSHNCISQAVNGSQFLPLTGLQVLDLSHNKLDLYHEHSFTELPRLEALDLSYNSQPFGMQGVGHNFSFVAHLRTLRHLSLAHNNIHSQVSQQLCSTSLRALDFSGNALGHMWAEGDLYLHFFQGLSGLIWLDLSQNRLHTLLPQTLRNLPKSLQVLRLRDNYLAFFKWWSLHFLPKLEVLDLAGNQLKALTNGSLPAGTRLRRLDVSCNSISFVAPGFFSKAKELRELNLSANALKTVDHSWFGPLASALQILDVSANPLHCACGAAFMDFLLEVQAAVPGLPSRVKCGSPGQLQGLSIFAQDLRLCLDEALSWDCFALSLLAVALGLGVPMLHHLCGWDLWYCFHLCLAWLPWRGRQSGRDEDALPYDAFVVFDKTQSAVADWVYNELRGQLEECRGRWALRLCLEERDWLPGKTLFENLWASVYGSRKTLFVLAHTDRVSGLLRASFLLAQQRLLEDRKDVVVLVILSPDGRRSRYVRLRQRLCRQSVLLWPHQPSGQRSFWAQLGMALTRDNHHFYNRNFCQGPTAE
As to the kind of experiment: Human PBMC cell-based assay, CpG-ODN stimulus, IL-6 ELISA. The note with it: Hu PBMC; ligand CpG-ODN; analyte IL-6. The arrangement: endogenous in cells; host or cells: primary human PBMC from healthy donor blood. As to the method: as §1, with “Human peripheral blood mononuclear cells (PBMC) were isolated from freshly-drawn heparinized (10 USP units/ml, Hospira, Lakeforest, Ill.) healthy donor whole blood by density gradient (Histopaque® 1077, Sigma, Inc., St. Louis, Mo.). Briefly,” for “Briefly,”, “temperature. […]” for “temperature.”
as §2

The mark [1] stands for this setting: Human PBMC IL-6 Inhibition (SL4-Ig Ligand), read-out: Human PBMC IC50.

Chain of Human TLR4 (O00206 24-839): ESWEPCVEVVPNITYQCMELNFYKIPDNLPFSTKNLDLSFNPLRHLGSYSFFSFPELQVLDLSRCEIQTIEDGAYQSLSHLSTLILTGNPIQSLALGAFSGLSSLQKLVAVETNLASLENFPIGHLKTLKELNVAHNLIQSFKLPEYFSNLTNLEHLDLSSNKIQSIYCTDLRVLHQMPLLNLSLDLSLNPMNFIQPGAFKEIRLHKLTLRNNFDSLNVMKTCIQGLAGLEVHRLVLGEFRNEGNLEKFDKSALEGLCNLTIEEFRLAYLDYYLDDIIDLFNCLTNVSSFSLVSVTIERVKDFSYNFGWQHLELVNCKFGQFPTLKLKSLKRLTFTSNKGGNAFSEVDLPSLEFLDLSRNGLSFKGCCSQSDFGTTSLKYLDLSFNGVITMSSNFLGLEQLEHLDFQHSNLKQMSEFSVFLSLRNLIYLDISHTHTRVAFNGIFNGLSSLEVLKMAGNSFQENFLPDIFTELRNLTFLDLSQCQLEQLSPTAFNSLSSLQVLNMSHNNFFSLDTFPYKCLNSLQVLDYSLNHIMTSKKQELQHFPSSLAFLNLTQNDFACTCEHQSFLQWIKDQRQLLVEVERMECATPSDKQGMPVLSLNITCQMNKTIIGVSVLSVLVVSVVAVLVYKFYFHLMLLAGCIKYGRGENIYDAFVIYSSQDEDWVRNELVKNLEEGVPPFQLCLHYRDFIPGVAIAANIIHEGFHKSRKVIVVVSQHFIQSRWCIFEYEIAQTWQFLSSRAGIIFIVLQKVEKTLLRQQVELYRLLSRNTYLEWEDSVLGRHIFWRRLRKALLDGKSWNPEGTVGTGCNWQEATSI
Chain of Human TLR4 (Q9Y6Y9 19-160 partner): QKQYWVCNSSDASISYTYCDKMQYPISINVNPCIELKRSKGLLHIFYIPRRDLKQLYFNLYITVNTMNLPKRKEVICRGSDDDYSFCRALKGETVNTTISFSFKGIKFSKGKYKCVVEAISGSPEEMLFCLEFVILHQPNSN

`COc1ccc([C@H]2C[C@@H](C(F)(F)F)n3nc(-c4ccc(C(=O)N5CCNCC5)cc4)cc3N2)cc1OC` [ER-892924]: the IC50 at Human TLR8 was found to be 220 nM; in the test on Human TLR7/8 (setting [1]), 160 nM.
Taken in the same sequence, the figures for `Cc1nn(C)cc1[C@H]1C[C@@H](C(F)(F)F)n2nc(-c3ccc4c(cnn4C)c3C)cc2N1` [ER-893987] were 220 nM and 2110 nM.
For `Cc1nn(C)cc1C1CC(C(F)(F)F)n2nc(-c3ccc4c(cnn4C)c3C)cc2N1` (stereo not drawn) [ER-892900], the IC50 at Human TLR8 was 330 nM; in the test with Human TLR7/8 (setting [1]), 744 nM.
In the case of `COc1cc(-c2cc3n(n2)C(C(F)(F)F)CC(c2ccc(OC)c(OC)c2)N3)ccn1` (racemic) [ER-886434], the IC50 at Human TLR8 worked out at 300 nM; in the test on Human TLR7/8 (setting [1]) it was 414 nM.
On to `CCN(CCO)CCCC(C)Nc1ccnc2cc(Cl)ccc12` (stereo not drawn) [HCQ, Hydroxychloroquine, reference compound], for which the IC50 against Human TLR4 is over 10000 nM; in the test with Human TLR7/8 (Hu PBMC, ligand RNA-Ig, analyte IL-6, read-out: IC50), 1000 to 2000 nM; with Human TLR7/8 (read-out: IC50 against the RNA-Ig TLR7/8 stimulus), about 1500 nM; against Human TLR9, 150 to 300 nM.
